Test results reported in ChEMBL document CHEMBL1201862, “PubChem BioAssay data set” (2004).
Calls of active or inactive are those of the source.

Tests used:
[1] = target: T1, RNA-binding protein pos-1 (Caenorhabditis elegans, UniProt G5EF15); assay: disruptors of C. elegans POS-1 RNA interaction – biochemical, fluorescence polarization, dose response (AID 1964);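 also: purified POS-1 fused to maltose binding protein made in E. coli; potency of compounds blocking POS-1 binding to fluorescent RNA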
T1 sequence (G5EF15 whole entry): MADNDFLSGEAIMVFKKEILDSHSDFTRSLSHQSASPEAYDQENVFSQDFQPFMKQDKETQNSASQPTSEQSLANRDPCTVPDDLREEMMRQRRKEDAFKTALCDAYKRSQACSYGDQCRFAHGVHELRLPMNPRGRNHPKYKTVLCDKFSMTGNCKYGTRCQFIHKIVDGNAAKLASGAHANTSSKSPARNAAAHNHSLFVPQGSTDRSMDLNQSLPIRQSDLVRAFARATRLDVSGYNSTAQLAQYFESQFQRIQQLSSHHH

[2] = target: T2, Zinc finger protein mex-5 (Caenorhabditis elegans, UniProt Q9XUB2); assay: potency of MEX-5 RNA-binding blockers – biochemical, C. elegans, fluorescence polarization, dose response (AID 1960)
T2 sequence (Q9XUB2 whole entry): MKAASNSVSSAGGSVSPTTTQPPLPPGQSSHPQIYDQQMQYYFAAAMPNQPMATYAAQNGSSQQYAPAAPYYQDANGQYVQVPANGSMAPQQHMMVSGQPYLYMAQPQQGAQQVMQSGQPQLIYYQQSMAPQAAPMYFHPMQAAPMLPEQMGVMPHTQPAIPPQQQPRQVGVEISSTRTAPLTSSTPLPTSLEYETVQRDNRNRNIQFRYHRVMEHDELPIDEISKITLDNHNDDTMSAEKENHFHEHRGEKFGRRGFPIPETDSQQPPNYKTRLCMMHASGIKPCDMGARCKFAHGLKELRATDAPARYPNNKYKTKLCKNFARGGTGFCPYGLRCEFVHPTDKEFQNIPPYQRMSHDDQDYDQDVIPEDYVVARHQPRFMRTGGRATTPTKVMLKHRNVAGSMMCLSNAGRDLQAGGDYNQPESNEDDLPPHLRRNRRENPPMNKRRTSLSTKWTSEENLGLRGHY

Cytochrome P450 2C19 = Cytochrome P450 2C19 (Homo sapiens, UniProt P33261); assay: Cytochrome panel assay with activity outcomes. Panel member name: p450-cyp2c19 Compounds with AC50 equal or less than 10 uM are considered active; type: functional; settings: read-out: AC50
Cytochrome P450 2C9 = Cytochrome P450 2C9 (Homo sapiens, UniProt P11712)
[3] = target: T3, Ubiquitin-conjugating enzyme E2 N (Homo sapiens, UniProt P61088); type: functional;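 also: Dose-response confirmation in a TR-FRET assay detecting UBC13-driven polyubiquitin chain formation, inhibition measured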
T3 sequence (P61088 whole entry): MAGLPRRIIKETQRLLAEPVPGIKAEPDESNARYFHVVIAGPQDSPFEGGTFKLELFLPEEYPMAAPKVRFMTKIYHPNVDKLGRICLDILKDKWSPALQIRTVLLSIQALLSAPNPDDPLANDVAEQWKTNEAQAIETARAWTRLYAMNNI

Aminopeptidase N = target: T4, Aminopeptidase N (Plasmodium falciparum FcB1/Columbia, UniProt O96935); assay: malaria alanyl aminopeptidase activity blockers – biochemical, fluorogenic H-Leu-NHMec substrate, 1536-well (AID 1445); parameters: species or system Plasmodium falciparum 3D7, 3D7
T4 sequence (O96935 whole entry): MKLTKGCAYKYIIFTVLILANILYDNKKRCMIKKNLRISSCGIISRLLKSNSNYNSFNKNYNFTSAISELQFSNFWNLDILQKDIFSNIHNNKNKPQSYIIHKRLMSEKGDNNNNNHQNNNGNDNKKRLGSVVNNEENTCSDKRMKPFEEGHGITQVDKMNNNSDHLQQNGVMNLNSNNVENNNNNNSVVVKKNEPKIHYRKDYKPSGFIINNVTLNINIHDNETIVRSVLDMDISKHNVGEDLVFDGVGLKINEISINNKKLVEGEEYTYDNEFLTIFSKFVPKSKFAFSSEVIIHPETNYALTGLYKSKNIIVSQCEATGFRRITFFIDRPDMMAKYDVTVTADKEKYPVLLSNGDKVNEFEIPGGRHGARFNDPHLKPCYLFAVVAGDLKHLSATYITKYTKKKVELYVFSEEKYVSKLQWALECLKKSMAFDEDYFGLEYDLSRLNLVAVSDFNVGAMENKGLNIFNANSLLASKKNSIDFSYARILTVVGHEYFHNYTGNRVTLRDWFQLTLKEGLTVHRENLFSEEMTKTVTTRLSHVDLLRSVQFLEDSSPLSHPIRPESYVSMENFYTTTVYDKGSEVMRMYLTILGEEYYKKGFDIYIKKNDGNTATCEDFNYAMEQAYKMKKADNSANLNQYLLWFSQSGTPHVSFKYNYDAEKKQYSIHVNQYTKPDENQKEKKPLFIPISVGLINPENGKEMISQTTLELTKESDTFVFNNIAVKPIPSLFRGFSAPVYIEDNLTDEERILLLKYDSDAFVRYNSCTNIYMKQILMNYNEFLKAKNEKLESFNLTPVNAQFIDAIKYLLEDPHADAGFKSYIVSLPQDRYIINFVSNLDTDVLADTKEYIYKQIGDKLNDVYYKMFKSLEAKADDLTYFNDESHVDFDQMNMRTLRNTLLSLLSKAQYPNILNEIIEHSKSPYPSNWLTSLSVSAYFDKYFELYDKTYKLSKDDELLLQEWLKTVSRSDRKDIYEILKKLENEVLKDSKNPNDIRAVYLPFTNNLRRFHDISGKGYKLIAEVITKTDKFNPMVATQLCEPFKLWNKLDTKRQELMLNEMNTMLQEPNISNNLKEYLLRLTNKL

[4] = target: T5, Corticotropin-releasing factor receptor 2/Corticotropin-releasing factor-binding protein (Homo sapiens, UniProt P24387+Q13324); assay: activators of CRF receptor 2 with binding protein – uHTS hits, confirmation (AID 602473); type: functional; settings: read-out: EC50_Mean
T5 sequence (Q13324 whole entry): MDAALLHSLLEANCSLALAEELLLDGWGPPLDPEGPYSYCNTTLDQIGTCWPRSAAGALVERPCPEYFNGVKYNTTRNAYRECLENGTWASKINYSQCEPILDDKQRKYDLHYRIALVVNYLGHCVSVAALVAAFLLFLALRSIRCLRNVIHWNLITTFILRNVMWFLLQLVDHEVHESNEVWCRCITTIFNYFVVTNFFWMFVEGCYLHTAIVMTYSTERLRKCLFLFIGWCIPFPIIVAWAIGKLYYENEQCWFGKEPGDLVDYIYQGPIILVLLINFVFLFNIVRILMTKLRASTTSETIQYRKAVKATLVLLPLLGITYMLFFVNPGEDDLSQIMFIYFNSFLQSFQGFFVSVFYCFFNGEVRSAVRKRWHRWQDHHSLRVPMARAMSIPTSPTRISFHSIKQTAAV
T5 sequence (P24387 whole entry): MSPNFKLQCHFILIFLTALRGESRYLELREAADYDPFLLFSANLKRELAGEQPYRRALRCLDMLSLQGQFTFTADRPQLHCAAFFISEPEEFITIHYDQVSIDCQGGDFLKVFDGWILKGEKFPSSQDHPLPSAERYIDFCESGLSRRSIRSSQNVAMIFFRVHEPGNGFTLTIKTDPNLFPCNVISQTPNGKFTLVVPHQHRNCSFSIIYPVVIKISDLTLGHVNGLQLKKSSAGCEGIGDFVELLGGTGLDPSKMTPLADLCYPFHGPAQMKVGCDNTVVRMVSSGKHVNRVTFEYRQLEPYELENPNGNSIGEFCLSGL

[5] = target: T6, Replicative DNA helicase DnaB (Mycobacterium tuberculosis, UniProt P9WMR3); assay: DnaB intein splicing inhibitors, dose response, biochemical, cell-free fluorescence (AID 449749); type: functional
T6 sequence (P9WMR3 whole entry): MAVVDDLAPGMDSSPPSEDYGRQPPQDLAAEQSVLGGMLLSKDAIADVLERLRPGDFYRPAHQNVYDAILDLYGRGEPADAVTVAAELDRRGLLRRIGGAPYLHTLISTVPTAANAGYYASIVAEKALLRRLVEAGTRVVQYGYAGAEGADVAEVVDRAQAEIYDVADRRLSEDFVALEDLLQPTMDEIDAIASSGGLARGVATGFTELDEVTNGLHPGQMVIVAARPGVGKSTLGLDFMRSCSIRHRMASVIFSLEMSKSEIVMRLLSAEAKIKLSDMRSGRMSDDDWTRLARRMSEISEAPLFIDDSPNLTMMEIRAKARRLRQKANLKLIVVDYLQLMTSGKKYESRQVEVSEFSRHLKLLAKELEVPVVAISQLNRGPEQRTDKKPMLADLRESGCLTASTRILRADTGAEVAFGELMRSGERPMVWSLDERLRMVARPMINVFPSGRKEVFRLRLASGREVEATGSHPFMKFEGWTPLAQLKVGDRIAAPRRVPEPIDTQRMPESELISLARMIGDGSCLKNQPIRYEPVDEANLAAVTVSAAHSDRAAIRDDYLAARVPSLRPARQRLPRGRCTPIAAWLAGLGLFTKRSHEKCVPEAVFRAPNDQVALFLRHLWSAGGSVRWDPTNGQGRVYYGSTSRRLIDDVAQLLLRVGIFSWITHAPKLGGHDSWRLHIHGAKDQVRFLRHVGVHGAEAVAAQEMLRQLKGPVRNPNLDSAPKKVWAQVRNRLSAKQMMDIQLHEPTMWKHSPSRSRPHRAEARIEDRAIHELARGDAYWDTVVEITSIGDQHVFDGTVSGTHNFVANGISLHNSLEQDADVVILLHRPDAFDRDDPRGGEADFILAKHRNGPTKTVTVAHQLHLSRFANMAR

Protein RecA = target: T7, Protein RecA (Mycobacterium tuberculosis, UniProt P9WHJ3); assay: Fluorescence Cell-Free Homogeneous Dose Retest to Identify Inhibitors of RecA-Intein Splicing Activity. [Related pubchem assays (depositor defined):AID2097, AID2223, AID489010, AID492950]; type: functional
T7 sequence (P9WHJ3 whole entry): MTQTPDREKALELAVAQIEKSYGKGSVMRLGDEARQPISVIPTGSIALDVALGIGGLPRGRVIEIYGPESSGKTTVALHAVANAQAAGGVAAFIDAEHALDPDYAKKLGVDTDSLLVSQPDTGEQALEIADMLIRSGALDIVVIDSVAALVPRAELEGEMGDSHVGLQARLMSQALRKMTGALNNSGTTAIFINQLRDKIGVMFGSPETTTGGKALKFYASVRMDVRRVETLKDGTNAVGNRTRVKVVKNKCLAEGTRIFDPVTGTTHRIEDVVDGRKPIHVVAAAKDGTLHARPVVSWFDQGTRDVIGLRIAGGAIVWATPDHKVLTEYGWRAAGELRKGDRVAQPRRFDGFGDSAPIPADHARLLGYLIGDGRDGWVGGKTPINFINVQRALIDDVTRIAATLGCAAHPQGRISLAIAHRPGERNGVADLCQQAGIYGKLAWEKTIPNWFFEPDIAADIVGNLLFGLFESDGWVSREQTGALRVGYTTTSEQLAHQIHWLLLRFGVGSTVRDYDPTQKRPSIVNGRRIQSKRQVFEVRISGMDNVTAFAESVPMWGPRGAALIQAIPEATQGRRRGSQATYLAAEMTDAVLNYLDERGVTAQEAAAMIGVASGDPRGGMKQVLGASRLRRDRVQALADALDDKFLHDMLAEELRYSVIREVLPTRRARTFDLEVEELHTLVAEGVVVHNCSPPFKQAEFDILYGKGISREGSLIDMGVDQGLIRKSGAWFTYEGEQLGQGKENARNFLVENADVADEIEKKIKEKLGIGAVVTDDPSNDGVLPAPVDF

Cytochrome P450 2C9, sequence (P11712 whole entry): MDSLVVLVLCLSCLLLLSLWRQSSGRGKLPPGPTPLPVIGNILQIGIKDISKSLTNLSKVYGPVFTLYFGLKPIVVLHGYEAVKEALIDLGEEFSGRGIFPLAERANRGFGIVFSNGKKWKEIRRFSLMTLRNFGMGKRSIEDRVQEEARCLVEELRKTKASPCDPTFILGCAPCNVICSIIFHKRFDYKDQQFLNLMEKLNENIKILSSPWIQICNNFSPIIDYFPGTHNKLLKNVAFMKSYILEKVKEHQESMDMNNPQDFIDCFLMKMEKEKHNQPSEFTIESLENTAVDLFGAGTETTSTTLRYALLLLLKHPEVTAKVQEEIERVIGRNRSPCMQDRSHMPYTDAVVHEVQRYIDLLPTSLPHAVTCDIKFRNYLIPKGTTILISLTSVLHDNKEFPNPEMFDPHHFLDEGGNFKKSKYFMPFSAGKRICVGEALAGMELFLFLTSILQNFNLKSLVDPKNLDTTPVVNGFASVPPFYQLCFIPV
Cytochrome P450 2C19, sequence (P33261 whole entry): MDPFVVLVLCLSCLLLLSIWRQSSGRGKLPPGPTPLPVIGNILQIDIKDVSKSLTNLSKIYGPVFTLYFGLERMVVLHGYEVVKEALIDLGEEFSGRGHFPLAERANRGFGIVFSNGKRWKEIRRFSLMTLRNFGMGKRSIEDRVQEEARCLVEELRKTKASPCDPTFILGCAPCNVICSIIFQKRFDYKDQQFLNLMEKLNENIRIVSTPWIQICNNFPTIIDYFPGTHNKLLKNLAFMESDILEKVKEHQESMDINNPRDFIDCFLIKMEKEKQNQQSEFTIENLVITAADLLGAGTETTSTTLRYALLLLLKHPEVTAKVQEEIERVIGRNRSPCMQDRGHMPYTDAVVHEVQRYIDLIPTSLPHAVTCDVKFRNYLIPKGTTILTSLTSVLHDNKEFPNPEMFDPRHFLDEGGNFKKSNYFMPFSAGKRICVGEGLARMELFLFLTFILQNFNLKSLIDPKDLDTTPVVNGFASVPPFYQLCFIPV

Row | SMILES | EC50 [1] | EC50 [2] | IC50 (Aminopeptidase N) | further results
1 | CN1C(=O)C(=Cc2ccc(N3CCCCC3)o2)C(=O)N(C)C1=S | > 300 µM (inconclusive) | > 300 µM (inconclusive) |  | AC50 (Cytochrome P450 2C19): 2.82 µM (inconclusive); AC50 (Cytochrome P450 2C9): 11.2 µM (inconclusive)
2 | CCN1CCN(S(=O)(=O)c2ccc(Cl)c(C(=O)N(C)Cc3cccs3)c2)CC1 |  |  |  | IC50 [3]: > 20 µM (inactive)
3 | CCCOc1ccc(C(C)=O)cc1CSc1nc(O)cc(=O)[nH]1 |  |  | 109 µM (active) | 
4 | NS(=O)(=O)c1ccc(-c2cccc(/C=C3\SC(=O)NC3=O)c2)cc1 | 13 µM (active) | 16.6 µM (active) |  | 
5 | Cc1cccc(S(=O)(=O)C(C#N)c2nc3ccccc3nc2N2CCOCC2)c1 (configuration not stated) | 163 µM (active) | > 300 µM (not active) |  | 
6 | CCOC(=O)N1CCN(c2nc3ccccc3nc2C(C#N)S(=O)(=O)c2ccc(C)cc2)CC1 (configuration not stated) | > 300 µM (inconclusive) | 170 µM (inconclusive) |  | 
7 | COc1ccc(/C=C/C(O)=C2\C(=O)NC(=O)N(CCC3=CCCCC3)C2=O)cc1OC | 6.09 µM (inconclusive) | > 300 µM (inconclusive) |  | 
8 | O=C(COc1ccccc1/C=C1\SC(=O)NC1=O)Nc1ccccc1 |  |  | 32.6 µM (active) | 
9 | Cc1ccc(C(C(=O)NCC2CCCO2)N(C(=O)c2snc(C(N)=O)c2N)c2ccccc2F)o1 (configuration not stated) |  |  |  | IC50 [3]: > 20 µM (inactive)
10 | COc1ccc(OC)c(NC(=O)C2C3C=CC(C3)C2C(=O)NCc2cccnc2)c1 (configuration not stated) |  |  | 48.2 µM (active) | 
11 | COc1cc(/C=C2\C(=N)N3C(=NC2=O)Sc2cc(S(C)(=O)=O)ccc23)ccc1O |  |  | 45.7 µM (active) | EC50 [4]: 5.19 µM (active)
12 | CCn1c(=O)cc(C(F)(F)F)[nH]c1=S |  |  |  | IC50 [3]: > 20 µM (inactive)
13 | O=c1c2cc(Br)ccc2[nH]c(=S)n1-c1ccccc1 |  |  |  | IC50 [3]: > 20 µM (inactive)
14 | CCOC(=O)C1=C(Nc2ccccc2)S/C(=C\c2ccc(OCC(=O)O)c(OCC)c2)C1=O |  |  | 60.2 µM (active) | 
15 | Cc1[nH][nH]c(=O)c1C(c1cc([N+](=O)[O-])ccc1O)c1c(C)[nH][nH]c1=O | 64.5 µM (active) | 16.7 µM (active) | 30.1 µM (active) | AC50 [5]: 0.399 µM (active); EC50 (Protein RecA): 0.262 µM (active)
